Laboratory results: patent US20110008388A1, “PIGLET FEED RATIONS HAVING LOW LEVELS OF FERMENTABLE CARBOHYDRATES” (NOVUS INTERNATIONAL INC., priority 2007, published 2011)

Assays:
[1] = tested on: nursery pigs; assay: Example 4: organic trace minerals and antibiotics with GEM blend in low lactose diets, nursery pig performance (BW, ADG, ADFI, GF); format: in vivo; details: Phase I, 0 to 7 days post weaning; regardless of lactose level; P<0.07
Method: Forty-two pens of pigs with about 20-25 pigs/pen blocked by weight were used. Pig body weights were collected initially (day 0) and at the end of each phase (days 7 and 21 post weaning). Feed consumption was measured from days 0-7 (Phase I) and from days 8-21 (Phase II) post weaning. Growth rate was calculated as average daily gain (ADG), daily feed intake was calculated as average daily feed intake (ADFI) and feed efficiency was calculated as the ratio of gain:feed (GF).
Phase I was from day 0 to 7 post weaning and Phase II was from day 8 to 21 post weaning. Composition and analysis of the experimental diets used in Phase I are described in Tables 18 and 19, respectively. Composition and analysis of the experimental diets used in Phase II are described in Tables 20 and 21, respectively. Diets in treatments 1 and 6 contained the high lactose levels of 20% and 10% in Phase I and II, respectively. All other treatments had diets containing the low lactose levels of 5% and 2.5% in Phase I and II, respectively. Antibiotic, GEM blend and OTM treatments during the two phases were as follows:
Phase I (0 to 7 Days): • 1. High lactose (20%)+enteric antibiotic. • 2. Low lactose (5%)+enteric antibiotic. • 3. Low lactose (5%)+enteric antibiotic+GEM blend. • 4. Low lactose (5%)+enteric antibiotic+OTM. • 5. Low lactose (5%)+enteric antibiotic+OTM+GEM blend. • 6. […]

[2] = tested on: nursery pigs; assay: Example 1: lactose level and acidifying agent in nursery pig diets, growth performance (BW, ADG, ADFI, GF); format: in vivo; details: for feed intake: Phase I; for average daily feed intake (ADFI): Phase II
From the text: The following study was designed to determine whether a feed supplement comprising an acidifying agent could counteract the negative effects of lower levels of lactose in nursery pigs. A two-phase feeding program, with and without an acidifying agent comprising 2-hydroxy-4-methylthiobutanoic acid, fumaric acid, and benzoic acid (i.e., as provided by ACTIVATE® DA, Novus Intl), was implemented with industry norms for energy, digestible amino acids, vitamins, and minerals. The two-phase feeding program introduced ingredients in a progressive way to gently enhance maturation of the gastrointestinal system, while at the same time supplying special ingredients that should encourage maximal growth performance. The pigs were fed a Phase I diet from weaning to 10 days post weaning, and a Phase II diet from days 11 to 21 post weaning. The levels of lactose were varied in each diet phase and each level of lactose was examined with and without the acidifying agent.
A total of approximately 840 commercial breed nursery pigs (TR-4X C22 PIC lines, PIC Intl., Franklin, Ky.) were blocked by weight and sex, and then placed into a pen containing about 20-22 pigs per pen. There were a total of 42 pens that were used for 7 replications/treatment with approximately equal numbers of pens per sex/treatment. Treatments were randomly assigned to pens within a room prior to treatment initiation. Each pen was accounted as an experimental unit. The animals were cared for according to standard site practices, which include daily observations, temperature monitoring, feeder observations, and waterer observations.
Diets were balanced to meet 60 TID Met & Cys:Lys. The ideal amino acid ratio of Thr, Tryp, Ile, and Val to Lys was maintained at a minimum of 65%, 16%, 55%, and 65%, respectively, based on the TID ideal amino acid profile for swine. Diets that included the acidifying agent used MHA (DL-methionine hydroxyl analog) to balance for the methionine source, while diets without the acidifying agent used DL-Met as a methionine source. All diets were balanced to have equivalent methionine activity and properly mixed according to the diet formulations presented in Table 1 and Table 2 for Phase I, and Table 4 and Table 5 for Phase II. Calculated analyses of the diets are presented in Tables 3 and 6 for Phase I and II, respectively.
The treatment arrangements were a 3×2 factorial arrangement with three levels of lactose with and without the acidifying agent (i.e., ACTIVATE® DA at a 0.5%). Diets were formulated to provide 5%, 10%, or 20% lactose equivalent during Phase I (0 to 10 days post weaning) and 2.5%, 5%, or 10% lactose equivalent during Phase II (11 to 21 days post weaning). The lactose equivalent was provided by […]-80® (80% lactose content; International Ingredient Corporation, St. Louis, Mo.). Fishmeal and SDPP were held constant across the diets, and corn and CWG were allowed to float to provide similar energy levels. All diets were supplemented with the enteric antibiotic carbodox (i.e., MECADOX®, Phibro Animal Health, Ridgefield Park, N.J.).
The animals were observed daily including weekends and holidays. Any abnormal observations or mortalities were recorded by pen with weight and date. The body weights of the pigs were collected initially and at the end of each phase. The feed intake was collected for each phase of growth. Feed offered was measured by weighing each amount of feed used for each pen. Feed refused was measured by weighing the amount of feed left in the feeder and any remainder that had previously been recorded as feed offered.
Data were analyzed by analysis of variance procedures appropriate for a randomized block design using the General Linear Models procedure of SAS. Differences of least squares means for treatments from control pigs were determined using a least square comparison.

Row | SMILES | feed intake [1] [g/day] | feed intake ([2]; high level of lactose (20%)) [g/day] | feed intake ([2]; intermediate level of lactose (10%)) [g/day] | feed intake ([2]; lowest level of lactose (5%)) [g/day] | average daily feed intake (ADFI) ([2]; highest lactose level (10%)) [g/day] | average daily feed intake (ADFI) ([2]; intermediate lactose level (5%)) [g/day] | average daily feed intake (ADFI) ([2]; lowest lactose level ([…])) [g/day]
1 | COC(=O)N/N=C/c1c[n+]([O-])c2ccccc2[n+]1[O-] [enteric antibiotic, carbodox] | 179 | – | – | – | – | – | –
2 | OC[C@H]1O[C@@H](O[C@H]2[C@H](O)[C@@H](O)C(O)O[C@@H]2CO)[C@H](O)[C@@H](O)[C@H]1O (stereo partly shown) [lactose] | – | 146 | 150 | 132 | 408 | 400 | 384
